According to ChEMBL document CHEMBL3616368, “Induction of apoptosis by genipin inhibits cell proliferation in AGS human gastric cancer cells via Egr1/p21 signaling pathway” (Bioorg Med Chem Lett, 2015):
Active and inactive are the calls of the source. The rule behind the calls is not given here.

Tests used:
[1] = system: AGS; assay: Cytotoxicity against human AGS cells assessed as reduction in cell viability after 6 hrs by MTT assay; format: functional, cell-based
[2] = system: HEK293; assay: Cytotoxicity against HEK293 cells assessed as reduction in cell viability at 12.5 to 100 uM after 6 hrs by MTT assay; format: cell-based; conditions: human, hek293, 6 h
[3] = biological target: Early growth response protein 1 (Homo sapiens) (UniProt P18146); assay: Activation of Egr1 in human AGS cells assessed as increase in cleaved caspase-3 level at 100 uM by Western blot analysis in presence of caspase-3 inhibitor Ac-DEVD-CHO; format: cell-based
[4] = biological target: Early growth response protein 1 (Homo sapiens) (UniProt P18146); assay: Activation of Egr1 in human AGS cells assessed as increase in cleaved caspase-3 level at 100 uM by Western blot analysis; format: cell-based
[5] = system: AGS; assay: Cytotoxicity against human AGS cells assessed as cell viability at 100 uM after 6 hrs by MTT assay in presence of caspase-3 inhibitor Ac-DEVD-CHO; format: functional, cell-based
[6] = system: AGS; assay: Cytotoxicity against human AGS cells assessed as cell viability at 100 uM after 6 hrs by MTT assay; format: functional, cell-based
[7] = biological target: Early growth response protein 1 (Homo sapiens) (UniProt P18146); assay: Activation of Egr1 in human AGS cells assessed as increase in cleaved PARP level at 100 uM by Western blot analysis; format: cell-based
[8] = biological target: Early growth response protein 1 (Homo sapiens) (UniProt P18146); assay: Activation of Egr1 in human AGS cells assessed as increase in cleaved caspase-9 level at 100 uM by Western blot analysis; format: cell-based
[9] = biological target: Early growth response protein 1 (Homo sapiens) (UniProt P18146); assay: Activation of Egr1 in human AGS cells assessed as increase in cleaved caspase-7 level at 100 uM by Western blot analysis; format: cell-based
[10] = system: HEK293; assay: Induction of apoptosis in HEK293 cells assessed as increase in cleaved PARP level at 100 uM by Western blot analysis; format: cell-based; conditions: human, hek293, 100 µM
[11] = system: HEK293; assay: Induction of apoptosis in HEK293 cells assessed as increase in cleaved caspase-9 level at 100 uM by Western blot analysis; format: cell-based; conditions: human, hek293, 100 µM
[12] = system: HEK293; assay: Induction of apoptosis in HEK293 cells assessed as increase in cleaved caspase-7 level at 100 uM by Western blot analysis; format: cell-based; conditions: human, hek293, 100 µM
[13] = system: HEK293; assay: Induction of apoptosis in HEK293 cells assessed as increase in cleaved caspase-3 level at 100 uM by Western blot analysis; format: cell-based; conditions: human, hek293, 100 µM
[14] = biological target: Early growth response protein 1 (Homo sapiens) (UniProt P18146); assay: Activation of Egr1 in human AGS cells assessed as increase in intracellular accumulation of reactive oxygen species at 100 uM by H2DCFDA probe-based flow cytometric analysis relative to control; format: cell-based
[15] = biological target: Early growth response protein 1 (Homo sapiens) (UniProt P18146); assay: Activation of Egr1 in human AGS cells assessed as increase in loss of mitochondrial membrane potential after 6 hrs by Rh-123 staining-based flow cytometric analysis relative to control; format: cell-based
[16] = system: AGS; assay: Cell cycle arrest in human AGS cells assessed as accumulation at G0/G1 phase at 12.5 uM after 6 hrs by propidium iodide staining-based flow cytometric analysis (reference value: 52.82 +/- 2.87%); format: functional
[17] = system: AGS; assay: Cell cycle arrest in human AGS cells assessed as accumulation at G0/G1 phase at 25 uM after 6 hrs by propidium iodide staining-based flow cytometric analysis (reference value: 52.82 +/- 2.87%); format: functional
[18] = system: AGS; assay: Cell cycle arrest in human AGS cells assessed as accumulation at G0/G1 phase at 50 uM after 6 hrs by propidium iodide staining-based flow cytometric analysis (reference value: 52.82 +/- 2.87%); format: functional
[19] = system: AGS; assay: Cell cycle arrest in human AGS cells assessed as accumulation at G0/G1 phase at 100 uM after 6 hrs by propidium iodide staining-based flow cytometric analysis (reference value: 52.82 +/- 2.87%); format: functional
[20] = system: AGS; assay: Cell cycle arrest in human AGS cells assessed as accumulation at S phase at 12.5 uM after 6 hrs by propidium iodide staining-based flow cytometric analysis (reference value: 21.40 +/- 2.87%); format: functional
[21] = system: AGS; assay: Cell cycle arrest in human AGS cells assessed as accumulation at S phase at 25 uM after 6 hrs by propidium iodide staining-based flow cytometric analysis (reference value: 21.40 +/- 2.87%); format: functional
[22] = system: AGS; assay: Cell cycle arrest in human AGS cells assessed as accumulation at S phase at 50 uM after 6 hrs by propidium iodide staining-based flow cytometric analysis (reference value: 21.40 +/- 2.87%); format: functional
[23] = system: AGS; assay: Cell cycle arrest in human AGS cells assessed as accumulation at S phase at 100 uM after 6 hrs by propidium iodide staining-based flow cytometric analysis (reference value: 21.40 +/- 2.87%); format: functional
[24] = system: AGS; assay: Cell cycle arrest in human AGS cells assessed as accumulation at G2/M phase at 12.5 uM after 6 hrs by propidium iodide staining-based flow cytometric analysis (reference value: 23.05 +/- 3.15%); format: functional
[25] = system: AGS; assay: Cell cycle arrest in human AGS cells assessed as accumulation at G2/M phase at 25 uM after 6 hrs by propidium iodide staining-based flow cytometric analysis (reference value: 23.05 +/- 3.15%); format: functional
[26] = system: AGS; assay: Cell cycle arrest in human AGS cells assessed as accumulation at G2/M phase at 50 uM after 6 hrs by propidium iodide staining-based flow cytometric analysis (reference value: 23.05 +/- 3.15%); format: functional
[27] = system: AGS; assay: Cell cycle arrest in human AGS cells assessed as accumulation at G2/M phase at 100 uM after 6 hrs by propidium iodide staining-based flow cytometric analysis (reference value: 23.05 +/- 3.15%); format: functional
[28] = system: AGS; assay: Cell cycle arrest in human AGS cells assessed as accumulation at G2/M phase after 6 hrs by propidium iodide staining-based flow cytometric analysis; format: functional
[29] = biological target: Early growth response protein 1 (Homo sapiens) (UniProt P18146); assay: Activation of Egr1 in human AGS cells assessed as downregulation of cyclin A expression at 12.5 to 100 uM by Western blot analysis; format: cell-based
[30] = biological target: Early growth response protein 1 (Homo sapiens) (UniProt P18146); assay: Activation of Egr1 in human AGS cells assessed as downregulation of cyclin E expression at 12.5 to 100 uM by Western blot analysis; format: cell-based
[31] = biological target: Early growth response protein 1 (Homo sapiens) (UniProt P18146); assay: Activation of Egr1 in human AGS cells assessed as upregulation of protein expression by Western blot analysis; format: cell-based
[32] = biological target: Early growth response protein 1 (Homo sapiens) (UniProt P18146); assay: Activation of Egr1 in human AGS cells assessed as upregulation of p21 expression by Western blot analysis; format: cell-based
[33] = system: AGS; assay: Upregulation of Egr1 mRNA expression in human AGS cells by RT-qPCR analysis; format: functional, cell-based
[34] = biological target: Early growth response protein 1 (Homo sapiens) (UniProt P18146); assay: Activation of Egr1 in human AGS cells assessed as upregulation of p21 mRNA expression by RT-qPCR analysis; format: cell-based
[35] = biological target: Early growth response protein 1 (Homo sapiens) (UniProt P18146); assay: Activation of Egr1 in human AGS cells assessed as upregulation of protein expression after 6 hrs by DAPI staining-based fluorescence microscopic analysis; format: cell-based
[36] = biological target: Early growth response protein 1 (Homo sapiens) (UniProt P18146); assay: Activation of Egr1 in human AGS cells assessed as induction of p21 promoter activity by dual luciferase reporter gene assay; format: cell-based
[37] = biological target: Early growth response protein 1 (Homo sapiens) (UniProt P18146); assay: Activation of Egr1 in human AGS cells assessed as induction of p21 promoter activity by ChIP assay; format: cell-based
[38] = biological target: Early growth response protein 1 (Homo sapiens) (UniProt P18146); assay: Activation of Egr1 in human AGS cells assessed as increase in interaction with p21 promoter by dual luciferase reporter gene assay; format: cell-based
[39] = biological target: Early growth response protein 1 (Homo sapiens) (UniProt P18146); assay: Activation of Egr1 in human AGS cells assessed as increase in interaction with p21 promoter by ChIP assay; format: cell-based
[40] = system: AGS; assay: Upregulation of Egr1 mRNA expression in human AGS cells at 50 to 100 uM by RT-qPCR analysis in presence of si-Egr1 relative to control; format: functional, cell-based
[41] = biological target: Early growth response protein 1 (Homo sapiens) (UniProt P18146); assay: Activation of Egr1 in human AGS cells assessed as upregulation of p21 mRNA expression at 50 to 100 uM by RT-qPCR analysis in presence of si-Egr1 relative to control; format: cell-based
[42] = biological target: Early growth response protein 1 (Homo sapiens) (UniProt P18146); assay: Activation of Egr1 in human AGS cells assessed as upregulation of protein expression at 50 to 100 uM by Western blot analysis in presence of si-Egr1; format: cell-based
[43] = biological target: Early growth response protein 1 (Homo sapiens) (UniProt P18146); assay: Activation of Egr1 in human AGS cells assessed as upregulation of p21 expression at 50 to 100 uM by Western blot analysis in presence of si-Egr1; format: cell-based
[44] = biological target: Early growth response protein 1 (Homo sapiens) (UniProt P18146); assay: Activation of Egr1 in human AGS cells assessed as induction of p21 promoter activity at 12.5 to 100 uM by dual luciferase reporter gene assay in presence of si-Egr1; format: cell-based
[45] = biological target: Early growth response protein 1 (Homo sapiens) (UniProt P18146); assay: Activation of Egr1 in human AGS cells assessed as increase in cleaved caspase-3 level at 50 to 100 uM by Western blot analysis in presence of si-Egr1; format: cell-based
[46] = system: AGS; assay: Cytotoxicity against human AGS cells assessed as cell viability at 100 uM after 6 hrs by MTT assay in presence of si-Egr1; format: functional, cell-based
[47] = biological target: Early growth response protein 1 (Homo sapiens) (UniProt P18146); assay: Activation of Egr1 in human AGS cells transfected with p21-pcDNA3 assessed as increase in cleaved PARP level at 50 to 100 uM by Western blot analysis; format: cell-based
[48] = system: AGS; assay: Cytotoxicity against human AGS cells transfected with p21-pcDNA3 assessed as cell viability at 12.5 to 100 uM after 6 hrs by MTT assay relative to control; format: functional, cell-based
[49] = biological target: Early growth response protein 1 (Homo sapiens) (UniProt P18146); assay: Activation of Egr1 in human AGS cells transfected with p21-pcDNA3 assessed as increase in intracellular accumulation of reactive oxygen species at 100 uM by H2DCFDA probe-based flow cytometric analysis relative to control; format: cell-based

Sequence of Early growth response protein 1 (Homo sapiens) (P18146 whole entry, looked up): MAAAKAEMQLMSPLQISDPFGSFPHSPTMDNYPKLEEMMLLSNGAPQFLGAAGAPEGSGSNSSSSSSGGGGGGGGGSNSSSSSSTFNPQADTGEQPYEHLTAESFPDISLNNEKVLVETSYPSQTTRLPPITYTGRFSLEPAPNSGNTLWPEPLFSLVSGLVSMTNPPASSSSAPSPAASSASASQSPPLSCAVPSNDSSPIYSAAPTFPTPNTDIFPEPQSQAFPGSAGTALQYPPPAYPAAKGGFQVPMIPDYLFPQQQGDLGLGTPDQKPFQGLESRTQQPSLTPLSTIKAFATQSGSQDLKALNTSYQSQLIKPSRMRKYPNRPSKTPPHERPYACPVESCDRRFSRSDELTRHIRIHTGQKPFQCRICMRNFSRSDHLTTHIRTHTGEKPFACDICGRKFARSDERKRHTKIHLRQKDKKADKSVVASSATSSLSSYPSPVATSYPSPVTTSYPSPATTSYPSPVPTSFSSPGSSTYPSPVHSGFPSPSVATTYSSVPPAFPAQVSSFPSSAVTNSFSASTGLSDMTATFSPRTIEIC

Structure (SMILES): COC(=O)C1=CO[C@@H](O)[C@@H]2C(CO)=CC[C@H]12 [GENIPIN]
- Activity [1]: Dose-dependent effect
- Activity [2]: Non-toxic
- Activity [3]: inactive
- Activity [4]: Active
- Activity [5]: inactive
- Activity [6]: Active
- Activity [7]: Active
- Activity [8]: Active
- Activity [9]: Active
- Activity [10]: Non-toxic
- Activity [11]: Non-toxic
- Activity [12]: Non-toxic
- Activity [13]: Non-toxic
- Activity [14]: Active
- Activity [15]: Dose-dependent effect
- Activity [16]: 48.45%
- Activity [17]: 42.33%
- Activity [18]: 35.97%
- Activity [19]: 36.88%
- Activity [20]: 22.67%
- Activity [21]: 24.66%
- Activity [22]: 28.54%
- Activity [23]: 27.48%
- Activity [24]: 26.34%
- Activity [25]: 30.53%
- Activity [26]: 33.53%
- Activity [27]: 33%
- Activity [28]: Dose-dependent effect
- Activity [29]: Active
- Activity [30]: Active
- Activity [31]: Dose-dependent effect
- Activity [32]: Dose-dependent effect
- Activity [33]: Dose-dependent effect
- Activity [34]: Dose-dependent effect
- Activity [35]: Dose-dependent effect
- Activity [36]: Dose-dependent effect
- Activity [37]: Dose-dependent effect
- Activity [38]: Dose-dependent effect
- Activity [39]: Dose-dependent effect
- Activity [40]: inactive
- Activity [41]: inactive
- Activity [42]: inactive
- Activity [43]: inactive
- Activity [44]: inactive
- Activity [45]: inactive
- Activity [46]: inactive
- Activity [47]: Active
- Activity [48]: Active
- Activity [49]: Active
